From US10793563B2, “GCN2 inhibitors and uses thereof” (Merck Patent GmbH, priority 2018, dated 2020)
Read-outs that look alike come from different tables or passages of the source.

How the values were obtained:
GCN2 kinase = GCN2 kinase (Homo sapiens (Human), UniProt Q9P2K8); experiment: GCN2 Enzyme Inhibition Assay (Transcreener ADP2 fluorescence polarization); format: biochemical; settings: Ki(app); 280 μM ATP, 200 μM (RS)7 peptide, 4 nM GCN2, 25° C.
How it was run: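 At 25 °C, GCN2 kinase (typical final concentration 4 nM) and (RS)7 peptide in Tris-HCl pH 7.5 buffer with MgCl2, NaCl and DTT were preincubated with compound for 10 min, then ATP was added for a 1 h reaction. ADP was read by FP with antibody/Alexa633 tracer. Non-linear tight-binding analysis gave IC50 and apparent Ki.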

[1] = biological target: intracellular GCN2 (phosphorylation of the GCN2 substrate eIF2α) (Homo sapiens (Human), UniProt Q9P2K8); experiment: GCN2 Cellular Inhibition Assay (AlphaScreen SureFire P-eIF2α Ser51, borrelidin-treated U2OS cells); format: cell-based; settings: 10 μM borrelidin, 1 h
intracellular GCN2 (phosphorylation of the GCN2 substrate eIF2α), sequence (Q9P2K8 whole entry): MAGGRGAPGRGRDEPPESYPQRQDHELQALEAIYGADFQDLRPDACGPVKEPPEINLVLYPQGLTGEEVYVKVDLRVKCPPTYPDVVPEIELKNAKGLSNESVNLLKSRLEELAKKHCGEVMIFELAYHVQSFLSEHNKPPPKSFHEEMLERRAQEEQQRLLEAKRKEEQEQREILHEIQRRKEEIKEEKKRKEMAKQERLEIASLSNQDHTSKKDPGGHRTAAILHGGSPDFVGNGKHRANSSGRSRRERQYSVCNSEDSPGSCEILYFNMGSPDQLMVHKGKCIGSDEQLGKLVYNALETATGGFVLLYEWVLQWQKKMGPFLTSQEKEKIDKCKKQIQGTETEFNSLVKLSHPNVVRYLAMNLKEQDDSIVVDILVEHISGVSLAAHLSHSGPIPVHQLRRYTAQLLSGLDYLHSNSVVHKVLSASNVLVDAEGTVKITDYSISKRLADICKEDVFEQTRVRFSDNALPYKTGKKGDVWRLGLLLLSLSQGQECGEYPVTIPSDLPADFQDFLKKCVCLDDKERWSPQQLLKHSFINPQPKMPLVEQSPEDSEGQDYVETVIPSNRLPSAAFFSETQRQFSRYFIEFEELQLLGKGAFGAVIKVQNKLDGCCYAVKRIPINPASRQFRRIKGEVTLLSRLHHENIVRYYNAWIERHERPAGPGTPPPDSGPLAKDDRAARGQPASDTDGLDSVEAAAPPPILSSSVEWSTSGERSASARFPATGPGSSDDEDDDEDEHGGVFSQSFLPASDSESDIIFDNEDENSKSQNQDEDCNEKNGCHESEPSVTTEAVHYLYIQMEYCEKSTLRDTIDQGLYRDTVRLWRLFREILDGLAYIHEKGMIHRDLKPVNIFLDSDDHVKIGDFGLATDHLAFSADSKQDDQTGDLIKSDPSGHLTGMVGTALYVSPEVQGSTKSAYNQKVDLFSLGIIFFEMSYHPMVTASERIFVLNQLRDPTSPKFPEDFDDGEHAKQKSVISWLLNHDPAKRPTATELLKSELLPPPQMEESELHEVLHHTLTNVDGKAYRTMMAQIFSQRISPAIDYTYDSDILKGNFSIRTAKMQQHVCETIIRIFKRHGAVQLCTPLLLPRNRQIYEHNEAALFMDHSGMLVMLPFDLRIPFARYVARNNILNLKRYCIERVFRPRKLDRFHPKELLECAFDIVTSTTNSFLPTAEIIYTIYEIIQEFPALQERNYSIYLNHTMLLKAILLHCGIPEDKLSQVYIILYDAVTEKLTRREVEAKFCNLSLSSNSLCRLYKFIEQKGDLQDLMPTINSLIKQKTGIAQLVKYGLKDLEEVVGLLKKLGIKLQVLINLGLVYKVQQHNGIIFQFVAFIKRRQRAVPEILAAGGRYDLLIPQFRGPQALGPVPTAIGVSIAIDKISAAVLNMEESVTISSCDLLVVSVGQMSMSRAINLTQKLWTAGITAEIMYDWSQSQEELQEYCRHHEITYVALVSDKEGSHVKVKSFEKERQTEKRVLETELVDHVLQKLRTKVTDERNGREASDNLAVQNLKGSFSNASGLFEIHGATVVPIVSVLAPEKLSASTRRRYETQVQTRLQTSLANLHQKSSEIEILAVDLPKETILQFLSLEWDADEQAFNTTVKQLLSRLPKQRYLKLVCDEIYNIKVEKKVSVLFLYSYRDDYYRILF
How it was run: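 Phospho-eIF2α (Ser51) measured by AlphaScreen SureFire in lysates of U2OS cells stimulated 1 h at 37 °C with 10 μM borrelidin alongside compound, 4-fold dilutions from 40 μM. Inhibition expressed as percent relative to borrelidin-alone controls.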

[2] = phosphorylated eIF2α Ser51, read-out: GCN2 Biomarker (IC50)
[3] = GCN2 Biomarker (IC50), phosphorylated eIF2α Ser51

GCN2 kinase, sequence (Q9P2K8 whole entry): as above

SMILES	Ki (GCN2 kinase) [µM]	IC50 [1, 2] [µM]	IC50 [1, 3] [µM]
Clc1ccc2ncc(-c3nccc(N4CCC(c5cn[nH]c5)C4)n3)n2c1 (stereo not drawn) [I-27, 6-Chloro-3-[4-[3-(1H-pyrazol-4-yl)pyrrolidin-1-yl]pyrimidin-2-yl]imidazo[1,2-a]pyridine]	< 0.01	< 0.5	–
Clc1ccc2ncc(-c3nccc(N4CCNC(c5cn[nH]c5)C4)n3)n2c1 (stereo not drawn) [I-28, 6-Chloro-3-[4-[3-(1H-pyrazol-4-yl)piperazin-1-yl]pyrimidin-2-yl]imidazo[1,2-a]pyridine]	< 0.01	0.5 to 5	–
CP(C)(=O)C1CC(c2cn[nH]c2)CN(c2ccnc(-c3cnc4ccc(Cl)cn34)n2)C1 (stereo not drawn) [I-29, 6-Chloro-3-[4-[3-dimethylphosphoryl-5-(1H-pyrazol-4-yl)-1-piperidyl]pyrimidin-2-yl]imidazo[1,2-a]pyridine]	< 0.01	> 5	–
CC1CN(c2nccc(-c3cnc4ccc(Cl)cn34)n2)C(C)C(c2cn[nH]c2)N1 (stereo not drawn) [I-35, 6-Chloro-3-[4-[2,5-dimethyl-3-(1H-pyrazol-4-yl)piperazin-1-yl]pyrimidin-2-yl]imidazo[12-a]pyridine]	0.01 to 0.1	0.5 to 5	–
CC1CN(c2ccnc(-c3cnc4ccc(Cl)cn34)n2)C(C)C(c2cn[nH]c2)N1 (stereo not drawn) [I-36, 6-chloro-3-[4-[2,5-dimethyl-3-(1H-pyrazol-4-yl)piperazin-1-yl]pyrimidin-2-yl]imidazo[1,2-a]pyridine]	< 0.01	< 0.5	–
O=C1NCC2CN(c3ccnc(-c4cnc5ccc(C(F)(F)F)cn45)n3)CCN12 (stereo not drawn) [I-43, 7-[2-[6-(Trifluoromethyl)imidazo[1,2-a]pyridin-3-yl]pyrimidin-4-yl]-1,2,5,6,8,8a-hexahydroimidazo[1,5-a]pyrazin-3-one]	< 0.01	0.5 to 5	–
FC(F)(F)c1ccc2ncc(-c3nccc(N4CCOC(c5cn[nH]c5)C4)n3)n2c1 (stereo not drawn) [I-45, 2-(1H-Pyrazol-4-yl)-4-(2-(6-(trifluoromethyl)imidazo[1,2-a]pyridin-3-yl)pyrimidin-4-yl)morpholine]	< 0.01	< 0.5	–
CC1CC(CS(C)(=N)=O)C(C)N(c2ccnc(-c3cnc4ccc(Cl)cn34)n2)C1 (stereo not drawn) [I-46, ((1-(2-(6-Chloroimidazo[1,2-a]pyridin-3-yl)pyrimidin-4-yl)-2,5-dimethylpiperidin-3-yl)methyl)(imino)(methyl)-λ^6-sulfanone]	0.01 to 0.1	0.5 to 5	–
CC1CC(CS(C)(=N)=O)C(C)N(c2ccnc(-c3cnc4ccc(Cl)cn34)n2)C1 (stereo not drawn) [I-47, ((1-(2-(6-Chloroimidazo[1,2-a]pyridin-3-yl)pyrimidin-4-yl)-2,5-dimethylpiperidin-3-yl)methyl)(imino)(methyl)-λ^6-sulfanone]	< 0.01	0.5 to 5	–
CC1CC(C(N)=O)C(C)N(c2ccnc(-c3cnc4ccc(Cl)cn34)n2)C1 (stereo not drawn) [I-50, 1-[2-(6-Chloroimidazo[1,2-a]pyridin-3-yl)pyrimidin-4-yl]-2,5-dimethyl-piperidine-3-carboxamide]	< 0.01	0.5 to 5	–
Cc1noc([C@H]2CN(c3ccnc(-c4cnc5ccc(Cl)cn45)n3)C[C@@H](C)O2)n1 [I-54]	0.01 to 0.1	–	0.5 to 5
Clc1ccc2ncc(-c3nccc(N4CCCC(c5c[nH]cn5)C4)n3)n2c1 (stereo not drawn) [I-55, 6-Chloro-3-{4-[3-(1H-imidazol-4-yl)-piperidin-1-yl]-pyrimidin-2-yl}-imidazo[1,2-a]pyridine]	0.01 to 0.1	0.5 to 5	–
O=C(Nc1cn[nH]c1)[C@H]1CCCN(c2ccnc(-c3cnc4cc(F)c(Cl)cn34)n2)C1 [I-58, (S)-1-[2-(6-Chloro-7-fluoro-imidazo[1,2-a]pyridine-3-yl)-pyrimidin-4-yl]-piperidine-3-carboxylic acid (1H-pyrazol-4-yl)-amide]	0.01 to 0.1	–	0.5 to 5
Cc1noc([C@@H]2CN(c3ccnc(-c4cnc5ccc(Cl)cn45)n3)C[C@H](C)O2)n1 [I-62]	0.01 to 0.1	0.5 to 5	–
Cc1noc([C@H]2CN(c3ccnc(-c4cnc5ccc(Cl)cn45)n3)C[C@@H](C)O2)n1 [I-63]	< 0.01	< 0.5	–
CC(C)n1cc(C2(O)CCCN(c3ccnc(-c4cnc5ccc(Cl)cn45)n3)C2)nn1 (stereo not drawn) [I-76, 1-[2-(6-Chloro-imidazo[1,2-a]pyridin-3-yl)-pyrimidin-4-yl]-3-(1-isopropyl-1H-[1,2,3]triazol-4-yl)-piperidin-3-ol]	0.1 to 1	> 5	–
Clc1ccc2ncc(-c3nccc(N4CC5CC5(c5ccccc5)C4)n3)n2c1 (stereo not drawn) [I-84, 6-Chloro-3-[4-(1-phenyl-3-aza-bicyclo[3.1.0]hex-3-yl)-pyrimidin-2-yl]-imidazo[1,2-a]pyridine]	0.1 to 1	> 5	–
Cc1noc([C@H]2CN(c3ccnc(-c4cnc5ccc(C#N)cn45)n3)C[C@@H](C)O2)n1 [I-92, 3-{4-[(2R,6R)-2-methyl-6-(3-methyl-1,2,4-oxadiazol-5-yl)morpholin-4-yl]pyrimidin-2-yl}imidazo[1,2-a]pyridine-6-carbonitrile]	< 0.01	0.5 to 5	–
C[C@H]1CN(c2nc(-c3cnc4ccc(C(F)F)cn34)ns2)C[C@@H](CNS(C)(=O)=O)C1(F)F [I-103, N-(((3S,5S)-1-(3-(6-(difluoromethyl)imidazo[1,2-a]pyridin-3-yl)-1,2,4-thiadiazol-5-yl)-4,4-difluoro-5-methylpiperidin-3-yl)methyl)methanesulfonamide]	< 0.01	< 0.5	–

Further lines, with some results ahead:

Ki (GCN2 kinase) [µM]	IC50 [1, 2] [µM]	SMILES	IC50 [1, 3] [µM]
< 0.01	0.5 to 5	CS(=O)(=O)NCC1CCN(c2ccnc(-c3cnc4cc(F)c(Br)cn34)n2)C1 (stereo not drawn) [I-25, N-[[1-[2-(6-Bromo-7-fluoro-imidazo[1,2-a]pyridin-3-yl)pyrimidin-4-yl]pyrrolidin-3-yl]methyl]methanesulfonamide]	–
0.01 to 0.1	0.5 to 5	CC1CC(N=S(C)(C)=O)CN(c2ccnc(-c3cnc4ccc(C(F)(F)F)cn34)n2)C1 (stereo not drawn) [I-31, Dimethyl((5-methyl-1-(2-(6-(trifluoromethyl)imidazo[1,2-a]pyridin-3-yl)pyrimidin-4-yl)piperidin-3-yl)imino)-λ^6-sulfanone]	–
0.01 to 0.1	0.5 to 5	CC1CC(N=S(C)(C)=O)CN(c2ccnc(-c3cnc4ccc(C(F)(F)F)cn34)n2)C1 (stereo not drawn) [I-32, dimethyl((5-methyl-1-(2-(6-(trifluoromethyl)imidazo[1,2-a]pyridin-3-yl)pyrimidin-4-yl)piperidin-3-yl)imino)-λ^6-sulfanone]	–
< 0.01	< 0.5	NC(=O)[C@H]1CCCN(c2ccnc(-c3cnc4cc(F)c(Cl)cn34)n2)C1 [I-48, (3S)-1-[2-(6-Chloro-7-fluoro-imidazo[1,2-a]pyridin-3-yl)pyrimidin-4-yl]piperidine-3-carboxamide]	–
0.01 to 0.1	> 5	CS(C)(=O)=NC1CCCN(c2ccnc(-c3cnc4cc(F)c(Cl)cn34)n2)C1 (stereo not drawn) [I-49, ((1-(2-(6-Chloro-7-fluoroimidazo[1,2-a]pyridin-3-yl)pyrimidin-4-yl)piperidin-3-yl)imino)dimethyl-λ^6-sulfanone]	–
0.01 to 0.1	0.5 to 5	Fc1cc2ncc(-c3nccc(N4CCCC(c5c[nH]cn5)C4)n3)n2cc1Cl (stereo not drawn) [I-57, 6-Chloro-7-fluoro-3-{4-[3-(1H-imidazol-4-yl)-piperidin-1-yl]-pyrimidin-2-yl}-imidazo[1,2-a]pyridine]	–
0.1 to 1	> 5	Cn1cc(NC(=O)[C@H]2CCCN(c3ccnc(-c4cnc5cc(F)c(Cl)cn45)n3)C2)cn1 [I-59, (S)-1-[2-(6-Chloro-7-fluoro-imidazo[1,2-a]pyridine-3-yl)-pyrimidin-4-yl]-piperidine-3-carboxylic acid (1-methyl-1H-pyrazol-4-yl)-amide]	–
0.01 to 0.1	0.5 to 5	Clc1ccc2ncc(-c3nccc(N4CCCC(c5cnoc5)C4)n3)n2c1 (stereo not drawn) [I-65, 6-Chloro-3-[4-(3-isoxazol-4-yl-piperidin-1-yl)-pyrimidin-2-yl]-imidazo[1,2-a]pyridine]	–
0.01 to 0.1	0.5 to 5	Clc1ccc2ncc(-c3nccc(N4CCCC(c5ccon5)C4)n3)n2c1 (stereo not drawn) [I-66, 6-Chloro-3-[4-(3-isoxazol-3-yl-piperidin-1-yl)-pyrimidin-2-yl]-imidazo[1,2-a]pyridine]	–
0.01 to 0.1	0.5 to 5	OC1(c2ccccc2)CCCN(c2ccnc(-c3cnc4cc(F)c(Cl)cn34)n2)C1 (stereo not drawn) [I-81, 1-[2-(6-Chloro-7-fluoro-imidazo[1,2-a]pyridin-3-yl)-pyrimidin-4-yl]-3-phenyl-piperidin-3-ol]	–
0.01 to 0.1	0.5 to 5	OCC1CCN(c2ccnc(-c3cnc4cc(F)c(Cl)cn34)n2)CC1c1ccccc1 (stereo not drawn) [I-83, {1-[2-(6-Chloro-7-fluoro-imidazo[1,2-a]pyridin-3-yl)-pyrimidin-4-yl]-3-phenyl-piperidin-4-yl}-methanol]	–
0.1 to 1	> 5	OCC1(c2ccccc2)CCCN(c2ccnc(-c3cnc4cc(F)c(Cl)cn34)n2)C1 (stereo not drawn) [I-85, {1-[2-(6-Chloro-7-fluoro-imidazo[1,2-a]pyridin-3-yl)-pyrimidin-4-yl]-3-phenyl-piperidin-3-yl}-methanol]	–
0.01 to 0.1	0.5 to 5	O=C(Nc1ccncc1)[C@H]1CCCN(c2ccnc(-c3cnc4cc(F)c(Cl)cn34)n2)C1 [I-86, (S)-1-[2-(6-Chloro-7-fluoro-imidazo[1,2-a]pyridine-3-yl)-pyrimidin-4-yl]-piperidine-3-carboxylic acid pyridine-4-ylamide]	–
0.1 to 1	< 0.5	Fc1cc2ncc(-c3nccc(N4CCOC(c5ccccn5)C4)n3)n2cc1Cl (stereo not drawn) [I-88, 6-Chloro-7-fluoro-3-[4-(2-pyridin-2-yl-morpholin-4-yl)-pyrimidin-2-yl]-imidazo[1,2-a]pyridine]	–
